Laboratory results from PubChem BioAssay (NCI).
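Five concentrations, 48 hours, 96-well plates. GI50 is the concentration that inhibits growth by half. The concentration for full growth arrest is given as TGI.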

How the values were obtained:
Experiment in all cases: NCI anticancer screen, dose series, 48 h
786-0 renal = test system: 786-0 renal
SNB-75 CNS = test system: SNB-75 CNS
NCI-H23 lung = test system: NCI-H23 lung
CCRF-CEM leukemia = test system: CCRF-CEM leukemia
KM12 colon = test system: KM12 colon
SR leukemia = test system: SR leukemia
SK-MEL-2 melanoma = test system: SK-MEL-2 melanoma
HT29 colon = test system: HT29 colon
SF-268 CNS = test system: SF-268 CNS
LOX IMVI melanoma = test system: LOX IMVI melanoma
HS 578T breast = test system: HS 578T breast
OVCAR-3 ovarian = test system: OVCAR-3 ovarian
PC-3 prostate = test system: PC-3 prostate
HCC-2998 colon = test system: HCC-2998 colon
OVCAR-5 ovarian = test system: OVCAR-5 ovarian
MOLT-4 leukemia = test system: MOLT-4 leukemia
SN12C renal = test system: SN12C renal
CAKI-1 renal = test system: CAKI-1 renal
UACC-257 melanoma = test system: UACC-257 melanoma
A498 renal = test system: A498 renal
DU-145 prostate = test system: DU-145 prostate
IGROV1 ovarian = test system: IGROV1 ovarian
NCI-H522 lung = test system: NCI-H522 lung
NCI-H226 lung = test system: NCI-H226 lung
OVCAR-4 ovarian = test system: OVCAR-4 ovarian
SF-295 CNS = test system: SF-295 CNS
M14 melanoma = test system: M14 melanoma
SW-620 colon = test system: SW-620 colon
SF-539 CNS = test system: SF-539 CNS

`c1ccc(CSc2nnc3c4c5c(sc4nc(-c4cccnc4)n23)CCCCCC5)cc1` showed a GI50 (786-0 renal) of 3.63 µM, a TGI (786-0 renal) of 14.2 µM and a GI50 (SNB-75 CNS) of 2580 nM. For the same compound, the TGI (SNB-75 CNS) was 10.3 µM, the GI50 (NCI-H23 lung) was 2740 nM and the TGI (NCI-H23 lung) was 8.33 µM. It also gave a GI50 (CCRF-CEM leukemia) of 1110 nM, a TGI (CCRF-CEM leukemia) of 15.5 µM and a GI50 (KM12 colon) of 2600 nM. For the same compound, the TGI (KM12 colon) was 10.5 µM, the GI50 (SR leukemia) was 2590 nM and the TGI (SR leukemia) was 10.1 µM. The GI50 (SK-MEL-2 melanoma) was 2050 nM, the TGI (SK-MEL-2 melanoma) was 6.02 µM and the GI50 (HT29 colon) was 2780 nM. It also gave a TGI (HT29 colon) of 10.9 µM, a GI50 (SF-268 CNS) of 4.57 µM and a TGI (SF-268 CNS) of 17.8 µM. It also gave a GI50 (LOX IMVI melanoma) of 3.08 µM, a TGI (LOX IMVI melanoma) of 11.1 µM and a GI50 (HS 578T breast) of 3.84 µM. It also gave a TGI (HS 578T breast) of 28.6 µM, a GI50 (OVCAR-3 ovarian) of 2860 nM and a TGI (OVCAR-3 ovarian) of 12.4 µM. It also gave a GI50 (PC-3 prostate) of 2360 nM, a TGI (PC-3 prostate) of 10.8 µM and a GI50 (HCC-2998 colon) of 4.21 µM. For the same compound, the TGI (HCC-2998 colon) was 15.3 µM, the GI50 (OVCAR-5 ovarian) was 4.99 µM and the TGI (OVCAR-5 ovarian) was 17.5 µM. The GI50 (MOLT-4 leukemia) was 3000 nM, the TGI (MOLT-4 leukemia) was 11.3 µM and the GI50 (SN12C renal) was 2990 nM. The TGI (SN12C renal) was 11.8 µM, the GI50 (CAKI-1 renal) was 3.43 µM and the TGI (CAKI-1 renal) was 15.7 µM. For the same compound, the GI50 (UACC-257 melanoma) was 2120 nM, the TGI (UACC-257 melanoma) was 8.74 µM and the GI50 (A498 renal) was 2240 nM. The GI50 (DU-145 prostate) was 3.42 µM, the TGI (DU-145 prostate) was 14.4 µM and the GI50 (IGROV1 ovarian) was 4.18 µM. The TGI (IGROV1 ovarian) was 19.2 µM, the GI50 (NCI-H522 lung) was 1390 nM and the TGI (NCI-H522 lung) was 5.07 µM. The GI50 (NCI-H226 lung) was 2030 nM, the TGI (NCI-H226 lung) was 9.96 µM and the GI50 (OVCAR-4 ovarian) was 2080 nM. For the same compound, the TGI (OVCAR-4 ovarian) was 10.2 µM, the GI50 (SF-295 CNS) was 2800 nM and the TGI (SF-295 CNS) was 11.8 µM. The GI50 (M14 melanoma) was 3.75 µM, the TGI (M14 melanoma) was 16.9 µM and the GI50 (SW-620 colon) was 3.09 µM. It also gave a TGI (SW-620 colon) of 13.3 µM and a GI50 (SF-539 CNS) of 3.51 µM.
